Measured values: BigSolDB 2.1

CC(C)[C@H](N)C(=O)O
solubility (mole fraction)
Settings | 283.15 K | 288.15 K | 293.15 K | 298.15 K | 303.15 K | 308.15 K | 313.15 K | 318.15 K | 323.15 K | 328.15 K
in 1,4-dioxane | – | 6.7e-05 | 8.7e-05 | 0.000121 | 0.000169 | 0.000223 | 0.000281 | 0.000346 | 0.00041 | 0.000486
in acetone | 3.1e-05 | 4.1e-05 | 5.6e-05 | 7.5e-05 | 0.0001 | 0.000132 | 0.000171 | 0.000216 | 0.000256 | –
in acetonitrile | 2.4e-05 | 3.3e-05 | 4.3e-05 | 5.6e-05 | 6.8e-05 | 8.2e-05 | 9.9e-05 | 0.000116 | 0.000136 | –
in ethanol | 0.000254 | 0.00026 | 0.000272 | 0.000286 | 0.000303 | 0.00032 | 0.000338 | 0.000357 | 0.00038 | –
in ethyl acetate | 3.1e-05 | 3.7e-05 | 4.6e-05 | 5.7e-05 | 7.1e-05 | 8.4e-05 | 0.0001 | 0.000119 | 0.000136 | –
in isobutanol | 5e-05 | 6.1e-05 | 7.8e-05 | 9.9e-05 | 0.000123 | 0.000151 | 0.000185 | 0.000218 | 0.000258 | –
in isopropanol | 1.6e-05 | 1.8e-05 | 2.5e-05 | 3.2e-05 | 4.2e-05 | 5.6e-05 | 7e-05 | 9e-05 | 0.00011 | –
in methanol | 0.000585 | 0.000601 | 0.000624 | 0.000652 | 0.000684 | 0.000717 | 0.000754 | 0.000792 | 0.000834 | –
in methyl acetate | 3e-05 | 3.2e-05 | 3.4e-05 | 3.6e-05 | 4.2e-05 | 5.1e-05 | 6.7e-05 | 8.8e-05 | 0.000115 | –
in n-butanol | 2.4e-05 | 3.1e-05 | 4.7e-05 | 6.9e-05 | 9.1e-05 | 0.000115 | 0.000139 | 0.00017 | 0.000203 | –
in n-propanol | 1.5e-05 | 1.9e-05 | 2.3e-05 | 3e-05 | 3.7e-05 | 4.6e-05 | 5.5e-05 | 6.4e-05 | 7.7e-05 | –
in water | 0.00915 | 0.00921 | 0.00937 | 0.00954 | 0.00976 | 0.00998 | 0.0102 | 0.0105 | 0.0108 | –
